Measured values: PMC4338257 (Drug Design, Development and Therapy, 2015)

Target: human ether-à-go-go-related gene (hERG) channel (Kv11.1) (Homo sapiens, UniProt Q12809)
Experiment: whole-cell patch clamp in HEK […] cells stably expressing hERG
Format: cell-based

Chain of human ether-à-go-go-related gene (hERG) channel (Kv11.1) (Q12809 whole entry): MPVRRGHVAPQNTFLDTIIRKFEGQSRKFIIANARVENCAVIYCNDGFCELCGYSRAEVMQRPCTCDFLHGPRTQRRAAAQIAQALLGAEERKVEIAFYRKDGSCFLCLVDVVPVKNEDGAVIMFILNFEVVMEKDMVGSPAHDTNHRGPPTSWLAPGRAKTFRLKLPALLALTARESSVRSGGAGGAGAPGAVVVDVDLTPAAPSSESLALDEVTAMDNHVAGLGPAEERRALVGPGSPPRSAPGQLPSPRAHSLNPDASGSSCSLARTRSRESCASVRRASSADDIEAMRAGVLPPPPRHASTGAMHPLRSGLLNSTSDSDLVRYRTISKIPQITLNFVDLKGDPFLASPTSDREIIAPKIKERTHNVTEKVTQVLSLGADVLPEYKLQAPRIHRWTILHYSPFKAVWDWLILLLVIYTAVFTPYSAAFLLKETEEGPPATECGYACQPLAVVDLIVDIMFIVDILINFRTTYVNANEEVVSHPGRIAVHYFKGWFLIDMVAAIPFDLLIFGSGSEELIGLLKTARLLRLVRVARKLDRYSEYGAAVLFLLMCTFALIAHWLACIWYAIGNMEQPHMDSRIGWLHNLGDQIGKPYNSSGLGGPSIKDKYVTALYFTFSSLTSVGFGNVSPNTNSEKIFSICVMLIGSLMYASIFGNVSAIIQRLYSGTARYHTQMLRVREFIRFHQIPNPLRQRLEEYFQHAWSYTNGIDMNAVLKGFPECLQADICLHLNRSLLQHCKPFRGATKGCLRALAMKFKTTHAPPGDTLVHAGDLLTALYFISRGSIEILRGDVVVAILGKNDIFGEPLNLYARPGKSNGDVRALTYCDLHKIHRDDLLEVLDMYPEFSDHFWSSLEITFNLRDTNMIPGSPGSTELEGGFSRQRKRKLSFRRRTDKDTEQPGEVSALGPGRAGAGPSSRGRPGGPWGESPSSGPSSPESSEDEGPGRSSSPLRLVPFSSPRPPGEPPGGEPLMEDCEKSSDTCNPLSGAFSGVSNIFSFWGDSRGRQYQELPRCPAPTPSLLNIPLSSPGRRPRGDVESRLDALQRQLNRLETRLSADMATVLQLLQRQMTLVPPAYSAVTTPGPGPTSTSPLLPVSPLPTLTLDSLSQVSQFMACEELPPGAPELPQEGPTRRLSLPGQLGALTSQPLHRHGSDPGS

SMILES: Cc1ncc2n1-c1ccc(Cl)cc1C(c1ccccc1F)=NC2 [midazolam]
- IC50: 13.6 µM
